# According to US9359487B2, “Plasticizers based on mixed esters of succinate” (Proviron Holding N.V., priority 2012, dated 2016):
# Columns and labels:
# Assay type in all cases: physicochemical
# [1] = Volatility comparison of succinate and adipate ester (tests by the inventors); conditions: versus comparable adipate ester DEHA
# [2] = Weight loss test (volatility) of transparent plastisole PVC film at 100° C.; conditions: for Volatile: Weight difference @ 100° C. After 4 days (%) / Volatile: Weight difference @ 100° C. After 7 days (%): transparent PVC film, 50 phr plasticiser; for delta vs. ref. (weight difference after 4 days) / delta vs. ref. (weight difference after 7 days): versus DINP
# Description: Their plasticising behaviour is compared in a plastisole based transparent PVC film.
# (flooring type, top layer): Solvin 382NG 100 phr (obtainable from Solvay S.A., Belgium), plasticiser 50 phr, Ca/Zn stabiliser (Baerostab NT 306) 2.5 phr (obtainable from the company Baerlocher).
# The transparent film so formed is subjected to amongst others a weight loss test (volatility) at 100° C. for respectively 4 and 7 days. The plasticiser efficiency is determined by means of a hardness measurement. A measure for the compatibility of the plasticiser is the transparency.
# [3] = Extraction of plasticiser in water from plastisole samples; conditions: plastisol, 50 phr plasticizer; for Extractions by H2O (Weight Difference %) 1 d: after 1 day; for Extractions by H2O (Weight Difference %) 7 d: after 7 days; for Extractions by H2O (Weight Difference %) dry: after drying the sample
# Description: Various plastisoles were prepared on the basis of various plasticisers set forth in Table 1, according to the following formulae:
# 100 phr PVC (Vestolit B7021 ultra), 50 phr Plasticiser (Table 1), 3 phr ESBO (Drapex 39) (acting as anti-oxydans), 2 phr Ca/Zn stabiliser (Mark CZ 149).
# Apart from the above, the viscosity property of the plastisole solution was determined after 24 h (viscosity vs. Shear) and the thickening was determined. Apart from this the extraction of the plasticiser in water (expressed as % weight gain/weight loss) after 1 day, 7 days were determined, as well as after drying the sample.
# [4] = Volatility of pure plasticiser by thermal-gravimetrical analysis; conditions: 200° C./10 min, pure compound
volatility compared to di-2-ethylhexyl-adipate (DEHA) [1],Volatile: Weight difference @ 100° C. After 7 days (%) [2] [%],delta vs. ref. (weight difference after 4 days) [2],delta vs. ref. (weight difference after 7 days) [2],Structure (SMILES),Volatile: Weight difference @ 100° C. After 4 days (%) [2] [%],Extractions by H2O (Weight Difference %) 1 d [3] [%],Extractions by H2O (Weight Difference %) 7 d [3] [%],Extractions by H2O (Weight Difference %) dry [3] [%],Volatily plasticizer (weightloss [m %]) [4] [m %]
approximately twice as volatile,,,,"CCCCC(CC)COC(=O)CCC(=O)OCC(CC)CCCC (centres unmarked) [DEHSu, di-2-ethylhexyl-succinate]",,,,,
,−24.50,×7.6,×6.1,"CC(C)CCCCCCOC(=O)CCC(=O)OCCCCCCC(C)C [DINS, diisononylsuccinate]",,,,,
,,,,"CCCCC(CC)COC(=O)CCCCC(=O)OCC(CC)CCCC (centres unmarked) [DOA, Di-octyladepate]",,1,2.1,0.7,−18.4
,,,,"CCCCC(CC)COC(=O)c1ccc(C(=O)OCC(CC)CCCC)cc1 (centres unmarked) [DOTP, Di-octyltherephthalate]",,0.8,1.7,0.7,−4.8
,−17.60,×5.0,×4.4,"CCCCCC(CCC)COC(=O)CCC(=O)OCC(CCC)CCCCC (centres unmarked) [DPHS, di-(2-propylheptyl)succinate]",−11.50,,,,
,,,,"CC(C)CCCCCCOC(=O)c1ccccc1 [INB, Isononyl Benzoate]",,0.9,1.9,0.5,−61.7

Structure (SMILES),volatility compared to di-2-ethylhexyl-adipate (DEHA) [1],Volatile: Weight difference @ 100° C. After 7 days (%) [2] [%],delta vs. ref. (weight difference after 4 days) [2],delta vs. ref. (weight difference after 7 days) [2],Volatile: Weight difference @ 100° C. After 4 days (%) [2] [%],Extractions by H2O (Weight Difference %) 1 d [3] [%],Extractions by H2O (Weight Difference %) 7 d [3] [%],Extractions by H2O (Weight Difference %) dry [3] [%],Volatily plasticizer (weightloss [m %]) [4] [m %]
"CC(C)CCCCCCOC(=O)c1ccccc1C(=O)OCCCCCCC(C)C [DINP, Di-isononylphthalate]",,−4.00,,,−2.30,0.8,1.8,0.7,−4.3
